No end group written: not given here.
Molecular target: T1, ΔIBB-h-importin-α1 (Homo sapiens, UniProt P52292, DEL11-54)
T1 construct: IBB domain-truncated h-importin-α1 (Δ-h-importin-α1) (1–10, 55–529); GST (N, cleaved yes); His6 (C); made in house; host or cells: E. coli BL21 (DE3) Codonplus-RIL
Assay: ITC binding of NLS peptides to ΔIBB-h-importin-α1

KRPAATKKAGQAKKKK [nucleoplasmin NLS]
Kd: 140 ± 50 nM
